{"source": "patent US20140343118A1", "about": "“METHODS OF TREATMENT USING ARYLCYCLOPROPYLAMINE COMPOUNDS” (Duke University, priority 2013, published 2014)", "key": {"[1]": {"target": "T1, recombinant LSD1 (Homo sapiens, UniProt O60341)", "T1 construct": "made in house", "experiment": "LSD1 horseradish peroxidase coupled enzyme assay, time-dependent inactivation kinetics", "format": "biochemical", "description": "For example, compounds may be assayed for their ability to inhibit the enzymatic activity of recombinant LSD1 utilizing a horseradish peroxidase coupled assay for the detection of hydrogen peroxide formed in the demethylase catalytic cycle.\nLSD1 overexpression, purification and horseradish peroxidase coupled enzyme assay were performed as previously described.\nInhibitors were prepared as 100 mM stocks in dimethylsulfoxide (DMSO) before dilution into assay reagents at appropriate concentrations. Progress curves for time-dependent enzyme inactivation were fit to Equation 1\nProduct=(vi/kobs)*(1−exp^−kobs*t) (1)\nto obtain values of kobs as a function of inhibitor concentration, which were then fit to Equation 2 to obtain values of kinact and K1."}, "[2]": {"target": "T2, MAO B (Homo sapiens, UniProt P27338)", "T2 sequence (P27338 1-520)": "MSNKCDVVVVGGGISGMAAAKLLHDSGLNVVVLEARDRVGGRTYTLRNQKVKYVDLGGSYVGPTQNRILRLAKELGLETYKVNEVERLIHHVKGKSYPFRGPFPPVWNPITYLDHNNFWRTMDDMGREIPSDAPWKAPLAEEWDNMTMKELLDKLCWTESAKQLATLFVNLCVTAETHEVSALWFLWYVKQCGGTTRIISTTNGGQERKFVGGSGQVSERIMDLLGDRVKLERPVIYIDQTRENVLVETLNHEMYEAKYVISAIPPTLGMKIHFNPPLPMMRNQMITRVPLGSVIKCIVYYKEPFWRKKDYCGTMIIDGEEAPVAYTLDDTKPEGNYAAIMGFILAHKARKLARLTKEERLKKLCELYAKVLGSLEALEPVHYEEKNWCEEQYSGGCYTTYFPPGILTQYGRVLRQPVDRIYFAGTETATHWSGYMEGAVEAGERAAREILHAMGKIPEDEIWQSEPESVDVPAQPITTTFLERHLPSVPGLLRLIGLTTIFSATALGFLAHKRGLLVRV", "experiment": "Inhibition kinetics of MAO B"}, "[3]": {"test_system": "HCC1937 cells", "settings": "HCC1937, 250 μM every other day for 10 days", "description": "(§1) After 2 d, the cells were treated with fresh media containing the inhibitors at the concentrations indicated. Every 2 d, for a total of 6 or 10 d, respectively, the cells were treated similarly. […] Data are presented as the mean±SEM for triplicate wells in one representative experiment."}, "[4]": {"test_system": "HCC1143 cells", "settings": "HCC1143, 250 μM every other day for 10 days", "description": "as §1"}, "[5]": {"test_system": "histone H3K4-Me2 and H3K9-Me2 in MCF7 cells", "experiment": "Western blot of global histone dimethylation", "format": "cell-based", "settings": "inhibitors 250 μM for 24 h", "description": "(§2) MCF7 cells or MDA-MB 231 cells were seeded in six-well plates. Cells were treated after 48 h with inhibitor for 24 h. Whole-cell extracts were isolated using RIPA buffer [50 mM Tris (pH 8.0), 200 mM NaCl, 1.5 mM MgCl2, 1% Nonidet P-40 (NP40), 1 mM EGTA, 10% glycerol, 50 mM NaF, 2 mM Na3VO4 and 1× protease inhibitor mixture]. Crude histones were extracted from the lysate pellet by resuspending in water and precipitating with 25% TCA. The pellets were washed with acetone and then resuspended. Concentration of whole-cell lysate or resuspended histones was determined using Bio-Rad Bradford reagent using BSA for standard curve. For each sample, proteins were resolved by SDS-PAGE and transferred to a PVDF membrane (Biorad).\n(§3) H3K4-Me2 was detected using polyclonal rabbit antibody (Millipore 07-030). H3K9-Me2 was detected using a monoclonal mouse antibody (Abcam ab1220). Total H3 was detected using a polyclonal rabbit antibody (Abcam ab1791). LSD1 was detected using a monoclonal rabbit antibody (Millipore 05-939) or polyclonal rabbit antibody (Abcam ab17721). ERα (D12) was detected using monoclonal mouse antibody (Santa Cruz sc-8005). GAPDH was detected using polyclonal goat antibody (Santa Cruz sc-20357). Secondary antibodies were purchased from Bio-Rad."}, "[6]": {"test_system": "histone H3K4-Me2 and H3K9-Me2 in MDA-MB-231 cells", "experiment": "Western blot of global histone dimethylation", "format": "cell-based", "settings": "inhibitors 250 μM for 24 h", "description": "as §2, §3"}, "[7]": {"test_system": "MCF7 cells", "settings": "MCF7, 24 h, up to 500 μM"}, "[8]": {"test_system": "MCF7 cells", "experiment": "Cell cycle analysis (BrdU/PI flow cytometry)", "format": "cell-based", "settings": "MCF7, 250 μM, 24 hours", "description": "MCF7 cells were seeded at 400,000 cells per well in 6 well plates in DMEM/F12 (Invitrogen) containing 8% FBS, 1 mM sodium pyruvate and 0.1 mM non-essential amino acids. After 24 h, the cells were treated with fresh media containing the 250 μM inhibitor. After 48 h of treatment, the cells were pulsed for 2 h with BrdU (10 μg mL^−1). The cells were trypsinized and collected using cold IFA buffer (3 mL) (4% charcoal stripped FBS, 150 mM sodium chloride, 10 mM HEPES, pH 7.5). They were washed with PBS, resuspended in 1 mL of PBS and fixed with 70% ethanol. The cells were incubated for 30 min on ice and then stored at −20° C. The cells were washed with PBS containing 0.5% BSA. The pellet was denatured with 2 M hydrochloric acid containing 0.5% BSA. The residual acid was neutralized using 0.1M sodium borate, pH 8.5. The cell pellet was resuspended in dilute anti-BrdU-alexa fluor-488 antibody (Molecular Probes) (PBS+0.5% Tween 20+0.5% BSA+5% antibody). After washing excess away, the cell pellets were resuspended in PI+RNase A (10 μg mL^−1 propidium iodide and 10 μg mL^−1 RNase A in PBS). The cells were vortexed and analyzed using flow cytometry (Accuri C6)."}, "[9]": {"test_system": "MCF7 cells", "experiment": "Cell proliferation assay (total DNA content)", "format": "cell-based", "settings": "MCF7, 250 μM every other day for 10 days", "description": "as §1"}, "[10]": {"test_system": "MDA-MB-231 cells", "experiment": "Cell proliferation assay (total DNA content)", "format": "cell-based", "settings": "MDA-MB-231, 250 μM every other day for 10 days", "description": "as §1"}, "[11]": {"test_system": "MDA-MB-231 cells", "settings": "MDA-MB-231, 24 h, up to 500 μM"}}, "data": [{"smiles": "CCOc1ccc(C2CC2N)cc1", "note": "(stereo not shown) [Compound 1b]", "values": [{"measurement": "kinact", "setting": "[1]; LSD1 inactivation", "value": "0.02 ± 0.002", "unit": "s⁻¹"}]}, {"smiles": "C#CCNCc1ccc(OC(C)C)cc1", "note": "[Compound 2b]", "values": [{"measurement": "kinact/KI", "setting": "[1]; LSD1 inactivation", "value": "< 0.8", "unit": "M⁻¹ s⁻¹"}]}, {"smiles": "C#CCNCc1ccccc1", "note": "[Compound 2a]", "values": [{"measurement": "kinact/KI", "setting": "[1]; LSD1 inactivation", "value": "< 0.6", "unit": "M⁻¹ s⁻¹"}]}, {"smiles": "NC1CC1c1cccc(OCc2ccccc2)c1", "note": "(stereo not shown) [Compound 1e]", "values": [{"measurement": "kinact", "setting": "[1]; LSD1 inactivation", "value": "0.025 ± 0.005", "unit": "s⁻¹"}]}, {"smiles": "NC1CC1c1ccc(Oc2ccccc2)cc1", "note": "(stereo not shown) [Compound 1d]", "values": [{"measurement": "kinact", "setting": "[2]", "value": "0.032 ± 0.002", "unit": "s⁻¹"}]}, {"smiles": "CC(C)(C)c1ccc(Sc2ccc(C3CC3N)cc2)cc1", "note": "(stereo not shown) [Compound 1f]", "values": [{"measurement": "Ki", "setting": "[1]; LSD1 inactivation", "value": "540 ± 160", "unit": "µM"}, {"measurement": "kinact", "setting": "[1]; LSD1 inactivation", "value": "0.022 ± 0.003", "unit": "s⁻¹"}]}, {"smiles": "N[C@@H]1C[C@H]1c1ccccc1", "note": "(relative stereo) [Compound 2-PCPA, trans-2-Phenylcyclopropylamine]", "values": [{"measurement": "cell proliferation", "setting": "[3]", "value": "significantly decreased cell proliferation"}, {"measurement": "cell proliferation", "setting": "[4]", "value": "significantly decreased cell proliferation"}, {"measurement": "level of global histone H3K4-Me2", "setting": "[5]", "value": "increased"}, {"measurement": "level of global histone H3K9-Me2", "setting": "[5]", "value": "significant changes were not observed"}, {"measurement": "level of global histone H3K4-Me2", "setting": "[6]", "value": "robust increases"}, {"measurement": "level of global histone H3K9-Me2", "setting": "[6]", "value": "robust increases"}, {"measurement": "induction of apoptosis", "setting": "[7]", "value": "did not induce apoptosis"}, {"measurement": "cell cycle arrest (accumulation in G1 and G2/M, decrease in S phase)", "setting": "[8]", "value": "growth arrested"}, {"measurement": "cell proliferation", "setting": "[9]", "value": "significantly decreased cell proliferation"}, {"measurement": "cell proliferation", "setting": "[10]", "value": "significantly decreased cell proliferation"}, {"measurement": "induction of apoptosis", "setting": "[11]", "value": "did not induce apoptosis"}]}, {"smiles": "C#CCN(C)Cc1ccccc1", "note": "[pargyline]", "values": [{"measurement": "concentration needed to inhibit LSD1 in vitro", "setting": "[1]", "value": "greater than 5 mM"}, {"measurement": "kinact/KI", "setting": "[1]; LSD1 inactivation", "value": "< 0.2", "unit": "M⁻¹ s⁻¹"}, {"measurement": "enzymatic activity remaining", "setting": "[1]; concentrations as high as 10 mM, prolonged exposure", "value": "greater than 70%"}]}, {"smiles": "C#CCNCc1ccc(Oc2ccccc2)cc1", "note": "[Compound 2c]", "values": [{"measurement": "kinact/KI", "setting": "[1]; LSD1 inactivation", "value": "< 0.3", "unit": "M⁻¹ s⁻¹"}]}]}
